The text below walks through data of PubChem BioAssay AID1418 (Emory University Molecular Libraries Screening Center, 2008).

The source made the active and inactive calls. How the calls were made is not given here. Bounds are passed on as bounds.

In the experiment the target is Induced myeloid leukemia cell differentiation protein Mcl-1 (Homo sapiens) (UniProt Q07820). The experiment can be described thus: blockers of Bid binding to Mcl-1 – biochemical, TR-FRET, dose response (AID 1418). The following applies: Mcl-1/Bid peptide binding, TR-FRET (europium/Dy647), 2 hr. Background: In TR-FRET formats the signal depends on donor and acceptor labels being close together.
Sequence of Induced myeloid leukemia cell differentiation protein Mcl-1 (Homo sapiens) (Q07820 whole entry, looked up): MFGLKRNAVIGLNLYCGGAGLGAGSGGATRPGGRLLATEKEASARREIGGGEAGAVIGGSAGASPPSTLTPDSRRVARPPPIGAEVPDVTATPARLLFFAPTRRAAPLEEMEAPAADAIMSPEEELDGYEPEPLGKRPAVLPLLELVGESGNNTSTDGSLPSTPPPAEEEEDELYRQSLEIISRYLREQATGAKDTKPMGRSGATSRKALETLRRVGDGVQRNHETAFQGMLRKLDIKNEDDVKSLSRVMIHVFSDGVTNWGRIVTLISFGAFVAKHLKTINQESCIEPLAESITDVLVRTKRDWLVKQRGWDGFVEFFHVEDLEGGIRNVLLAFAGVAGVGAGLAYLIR
`CCOC(=O)Cc1csc(NC(=O)CSc2nnnn2-c2ccc(C)c(C)c2)n1`: the IC50 (in general, the concentration that inhibits the measured activity by half) is > 54 µM (inactive).
`O=[N+]([O-])c1ccc(NC(=S)NCCc2ccc(Cl)cc2)cc1`: the IC50 is > 54 µM (inactive).
The figure for `O=C(CCCN1C(=O)c2ccccc2C1=O)Nc1ccccc1` is > 54 µM (inactive).
The figure for `COc1ccc(C2(C)NC(=O)N(CC(=O)NCCC3=CCCCC3)C2=O)cc1OC` (stereo not given) is > 54 µM (inactive); for `Cc1ccsc1C(=O)OCC(=O)N1CCOCC1` it is > 54 µM (inactive).
Consider `COc1cc(/C=N/NC(=O)c2ccc(CN3c4cccc5cccc(c45)S3(=O)=O)cc2)cc(OC)c1O`, for which the IC50 was 1.41 µM.
On to `CC1(C)Cc2cccc(OCC(=O)OCC(=O)Nc3cccc(S(N)(=O)=O)c3)c2O1`, for which the IC50 was > 54 µM (inactive).
Take `O=C(N=Nc1c(O)[nH]c2ccc(Cl)cc12)c1cc(-c2cccs2)nc2ccccc12`: the IC50 was 0.57 µM.
As to `CCCC(=O)Nc1nnc(-c2cccc(OCC)c2)s1`, the IC50 was > 54 µM (inactive).
Regarding `CC(C)C1(C)N=C(c2ncccc2C(=O)O)NC1=O` (stereo not given), the IC50 is > 54 µM (inactive).
Turning to `O=C(Cn1c2ccccc2c(=O)c2ccccc21)N/N=C/c1cc([N+](=O)[O-])ccc1N1CCCCC1`, the IC50 was 0.65 µM.
On to `O=C(CCN1CCc2ccccc2C1)Nc1cccc(F)c1`, for which the IC50 is > 54 µM (inactive).
In the case of `CCc1ccc2c(CN(CC)Cc3nc4ccccc4c(=O)[nH]3)cc(=O)oc2c1`, the IC50 was > 54 µM (inactive).
Take `O=C(O)c1[nH]c2ccccc2c1C=NCc1ccccc1Cl`: the IC50 is > 54 µM (inactive).
Take `O=[N+]([O-])c1cc(Cl)cc(/C=N/NC(=S)Nc2cc(S(=O)(=O)N3CCOCC3)ccc2Cl)c1O`: the IC50 is 7.3 µM.
The figure for `Nc1nc(SCc2ccc([N+](=O)[O-])cc2)nc2nc3c(cc12)CCCC3` is > 54 µM (inactive).
As for `N#Cc1nc(COc2ccc(F)cc2)oc1N1CCN(Cc2ccccc2)CC1`, the IC50 is > 54 µM (inactive).
Consider `N#Cc1ccc(CO/N=C/c2ccccc2)cc1`, for which the IC50 is > 54 µM (inactive).
The figure for `CCN(CC)c1ccc(NC(=O)Cn2c(C(C)NC(=O)c3ccc(C)cc3)nc3ccccc32)cc1` (stereo not given) is 0.9 µM.
As for `CCOC(=O)c1cccc(NC(=O)CCNS(=O)(=O)c2ccc3c(c2)CCN3C(=O)CC)c1`, the IC50 is > 54 µM (inactive).
The figure for `Cc1ccc(C(C)C)cc1NC(=O)Nc1ccc([N+](=O)[O-])cc1` is > 54 µM (inactive); for `CCS(=O)(=O)NCc1ccc2c(c1)cc(C)n2C` it is > 54 µM (inactive); for `Cc1cc(/C=N/NC(=O)c2cccs2)c(C)n1-c1ccccc1` it is > 54 µM (inactive).
The figure for `CCCOc1cccc(CN2CCCCC2c2cccnc2)c1` (stereo not given) is > 54 µM (inactive); for `Clc1ccc(OCCCNCc2ccccc2)c(Br)c1` it is > 54 µM (inactive).
Take `COC(=O)c1ccc(NC(=O)c2ccccc2N(C)S(=O)(=O)c2ccccc2)cc1`: the IC50 was > 54 µM (inactive).
As to `COC(=O)C(Cc1csc2ccc(Cl)cc12)NC(=O)c1ccc(Cl)cc1` (stereo not given), the IC50 was > 54 µM (inactive).
On to `CCOc1ccc(NC(=O)c2oc3ccccc3c2NC(=O)CC)cc1`, for which the IC50 was > 54 µM (inactive).
The figure for `O=c1c(O)cccc2cc(O)c(O)c(O)c12` is 0.92 µM; for `C=CCOC(=O)/C(=C/c1ccco1)NC(=O)/C=C/c1ccccc1` it is > 54 µM (inactive); for `CCNc1ccc2c(Cl)cc(=O)oc2c1` it is > 54 µM (inactive).
With `COc1ccc(Cc2nnc(NC(=O)Cc3cccs3)s2)cc1OC`, the IC50 was > 54 µM (inactive).
Consider `Brc1ccccc1`, for which the IC50 was > 54 µM (inactive).
The figure for `COc1ccc2nc(NC(=O)c3ccc(-c4cccc([N+](=O)[O-])c4)o3)sc2c1` is 0.81 µM; for `C=C(C)Cn1c(Sc2nnc(C)s2)nc2c1c(=O)[nH]c(=O)n2C` it is > 54 µM (inactive); for `O=C(Nc1ccc(-c2nc3ccc(NC(=O)c4cccs4)cc3[nH]2)cc1)c1cccs1` it is 0.79 µM.
Regarding `Cc1cc(N)n(-c2ccc3ccccc3c2)n1`, the IC50 was > 54 µM (inactive).
On to `Cc1ccc(-c2nc(N3CCOCC3)sc2C(=O)N2CCCCC2)cc1`, for which the IC50 is > 54 µM (inactive).
For `O=C(CSc1nc2ccccc2c2nc3ccccc3n12)NCc1ccco1`, the IC50 was 2.5 µM.
On to `COc1ccc(/C=C2\C(=O)NC(=S)N2C(=O)c2ccc(F)cc2)cc1`, for which the IC50 was 8.97 µM.
With `O=C(O)CC(NC(=O)COc1ccc(Cl)cc1Cl)C(=O)O` (stereo not given), the IC50 is > 54 µM (inactive).
The figure for `Cc1cc(=O)[nH]c(SCC(=O)c2ccc3c(c2)NC(=O)CO3)n1` is > 54 µM (inactive); for `COc1cc(Cl)c(C)cc1NC(=O)CCCn1c(=O)oc2ccccc21` it is > 54 µM (inactive); for `CC(/C=N\Nc1nnc2c(n1)[nH]c1c(C)cccc12)=C\c1ccco1` it is 1.66 µM.
Take `Nc1nnc(SCC(=O)N2CCN(c3ccccc3)CC2)n1-c1ccccc1`: the IC50 was > 54 µM (inactive).
